Columns and labels:
[1] = target: T1, MfnB_MM (Methanococcus maripaludis, UniProt Q6LZC1); assay: spectrophotometric, 4-HFC-P formation at […] nm; fit with substrate inhibition term; format: biochemical; conditions: 45 °C (optimum), pH 7.5, 20 mM Tris–HCl, 150 mM NaCl; two substrate molecules condensed
T1 construct: gene mfnB; full length, N-terminal hexa-histidine tag (pOPINF), no tag cleavage described; codon-optimised synthetic gene, expressed in E. coli BL21 (DE3)

[2] = target: T2, MfnB_MJ (Methanocaldococcus jannaschii, UniProt Q58499); assay: as above; format: biochemical; conditions: 75 °C (optimum), pH 7.5, 20 mM Tris–HCl, 150 mM NaCl; two substrate molecules condensed; substrate inhibition constant
T2 construct: gene mfnB; full length (235 residues), N-terminal hexa-histidine tag (pOPINF), no tag cleavage described; codon-optimised synthetic gene, expressed in E. coli BL21 (DE3); homohexamer in published crystal structure

[3] = target: T1, MfnB_MM; assay: as above; format: biochemical; conditions: 45 °C (optimum), pH 7.5, 20 mM Tris–HCl, 150 mM NaCl; two substrate molecules condensed; substrate inhibition constant
[4] = substrate: O=C[C@H](O)COP(=O)(O)O; assay: purified protein; format: biochemical, Methanocaldococcus jannaschii; conditions: 75 °C (optimum), pH 7.5, 20 mM Tris–HCl, 150 mM NaCl, two substrate molecules condensed

T1 sequence (Q6LZC1 whole entry): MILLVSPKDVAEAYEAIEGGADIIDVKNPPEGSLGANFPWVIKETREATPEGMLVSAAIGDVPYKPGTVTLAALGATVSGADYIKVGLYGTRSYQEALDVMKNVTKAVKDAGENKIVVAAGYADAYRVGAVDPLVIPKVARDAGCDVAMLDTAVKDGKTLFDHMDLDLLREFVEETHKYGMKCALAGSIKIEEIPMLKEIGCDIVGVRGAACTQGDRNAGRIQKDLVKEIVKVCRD

Molecule | Km [1] [µM] | Ki [2] [µM] | Ki [3] [µM] | Km [4] [µM] | kcat [4] [s⁻¹]
O=C[C@H](O)COP(=O)(O)O [D-GA-3-P] | 6.9 ± 0.6 | 565.3 ± 79.7 | 1532.0 ± 160.4 |  | 
MfnB_MJ (Methanocaldococcus jannaschii DSM 2661) (protein, full length (235 residues), N-terminal hexa-histidine tag (pOPINF), no tag cleavage described; codon-optimised synthetic gene, expressed in E. coli BL21 (DE3); homohexamer in published crystal structure) MILLVSPIDVEEAKEAIAGGADIIDVKNPKEGSLGANFPWMIKAIREVTPKDLLVSATVGDVPYKPGTISLAAVGAAISGADYIKVGLYGVKNYYQAVELMKNVVRAVKDIDENKIVVAAGYADAYRVGAVEPLIVPKIARDAGCDVAMLDTAIKDGKTLFDFQSKEILAEFVDEAHSYGLKCALAGSIKKEHIPILKEIGTDIVGVRGAACKGGDRNNGRIDRELVKELKELCK |  |  |  | 24.6 ± 3.1 | 0.142 ± 0.0067

— publication PMC11365854, “Molecular basis of hyper-thermostability in the thermophilic archaeal aldolase MfnB” (Extremophiles, 2024)
